# Laboratory results published in patent publication US9493460B2, “Diimide compounds” (UCL BUSINESS PLC, priority 2013, dated 2016).
# Read-outs that look alike come from different tables or passages of the source.
# Tests used:
# MCF-7 (breast) cells = assay: SRB growth inhibition assay, 96 hr exposure, MCF-7; type: cell-based, human
# Description: (§1) Human cancer cell lines, MCF7 (breast), A549 (lung), Mia-PaCa2, PANC1 and HPAC (pancreatic), RCC4 and 786-0 renal, and the somatic human cell line WI-38 (lung fibroblast) were purchased from ATCC. Cell lines were maintained in appropriate medium supplemented with 10% foetal bovine serum (Invitrogen, UK), 2 mM L-glutamine (Invitrogen, Netherlands), and other components as specified by the suppliers. Cell lines were maintained at 37° C., 5% CO2 and routinely passaged. Drugs were dissolved in DMSO and filtered through 0.22 μm pore-size filter units before addition to cell line appropriate media. Cellular growth inhibition was measured using the sulforhodamine B (SRB) assay in 96 well plates as described previously.^1,2 Fifty percent inhibitory concentrations (IC50) were determined by taking the mean absorbance at 540 nm for each drug concentration expressed as a percentage of the absorbance of untreated control wells.
# (§2) The anti-proliferative activity of the group of nine ND derivatives was assessed using the SRB assay following 96 h exposure to 2-fold serial dilutions of each compound (Table 2) in a panel of cancer cell lines together with a normal fibroblast line. […] In contrast the morpholine compounds all show sub-μM anti-proliferative activity in at least some of the cancer cell lines used and the two compounds 3d, 3h with n=3 —(CH2)n— linkers to the morpholine groups, show particularly potent activity in the Mia-PaCa2 and PANC1 pancreatic carcinoma and A549 lung adenocarcinoma cell lines (IC50 values of 10-20 nM).
# (§3) Next a series of structural isomers were tested.
# RCC4 (renal) cells = assay: SRB growth inhibition assay, 96 hr exposure, RCC4; type: cell-based, human
# Description: as §1, §2, §3
# [1] = test system: MiaPaCa2 (pancreatic) cells; assay: SRB growth inhibition assay, MiaPaCa2; type: cell-based, human; conditions: SRB assay, 96 hr exposure
# Description: as §1, §2
# Dose-response curves were used to guide the choice of compound concentration and time-points for the array experiments (FIG. 2a). […] To explore this response continuum the transcriptional signature of cells exposed for 24 h to 20 nM, 40 nM, 80 nM concentrations of 3d, or solvent alone as control, was analysed as described in Materials and Methods.
# as §3
# [2] = test system: HSP90b promoter quadruplex sequence; assay: FRET melting assay, Hsp90B quadruplex; type: binding; conditions: for change in melting temperature Hsp90B 1 uM: 1 uM ligand; for change in melting temperature Hsp90B 2 uM: 2 uM ligand
# Source text: (§4) The ability of the naphthalene diimide compounds to stabilize DNA sequences was investigated using a fluorescence resonance energy transfer (FRET) assay modified to be used as a high-throughput screen in a 96-well format. Several quadruplex sequences were studied (the human telomeric G-quadruplex DNA sequence 5′-FAM-d(GGG[TTAGGG]3)-TAMRA-3′ and the duplex sequence 5′-FAM-dTATAGCTATA-HEG-TATAGCTATA-TAMRA-3′ (HEG linker: [(—CH2—CH2—O—)6])), as well as two overlapping sequences from the HSP90 promoter region (HSP90a and HSP90b):
# (§5) The labelled oligonucleotides have attached to them the donor fluorophore FAM: 6-carboxyfluorescein and the acceptor fluorophore TAMRA: 6-carboxytetramethylrhodamine. The FRET probe sequences were diluted from stock to the correct concentration (400 nM) in a 60 mM potassium cacodylate buffer (pH 7.4) and then annealed by heating to 85° C. for 10 min, followed by cooling to room temperature in the heating block. The compound was stored as a 10 mM stock solution in DMSO; final solutions (at 2×concentration) were prepared using 10 mM HCl in the initial 1:10 dilution, after which 60 mM potassium cacodylate buffer (pH 7.4) was used in all subsequent steps. The maximum HCl concentration in the reaction volume (at a ligand concentration of 20 μM) is thus 200 μM, well within the range of the buffer used. Relevant controls were also performed to check for interference with the assay. 96-Well plates (MJ Research, Waltham, Mass.) were prepared by aliquoting 50 μl of the annealed DNA into each well, followed by 50 μl of the compound solutions. Measurements were made on a DNA Engine Opticon (MJ Research) with excitation at 450-495 nm and detection at 515-545 nm. Fluorescence readings were taken at intervals of 0.5° C. in the range 30-100° C., with a constant temperature being maintained for 30 s prior to each reading to ensure a stable value. Final analysis of the data was carried out using a script written in the program Origin 7.0 (OriginLab Corp., Northampton, Mass.). The advanced curve-fitting function in Origin 7.0 was used for calculation of ΔTm values. All determinations were performed in triplicate or better. Esds in ΔTm are ±0.1° C. […]
# [3] = test system: HSP90a promoter quadruplex sequence; assay: FRET melting assay, Hsp90A quadruplex; type: binding; conditions: for change in melting temperature Hsp90A 1 uM: 1 uM ligand; for change in melting temperature Hsp90A 2 uM: 2 uM ligand
# Source text: as §4, §5
# [4] = test system: human telomeric G-quadruplex DNA (F21T); assay: FRET melting assay, human telomeric quadruplex; type: binding; conditions: for change in melting temperature F21T 1 uM: 1 uM ligand; for change in melting temperature F21T 2 uM: 2 uM ligand
# Source text: as §4
# (§6) The labelled oligonucleotides have attached to them the donor fluorophore FAM: 6-carboxyfluorescein and the acceptor fluorophore TAMRA: 6-carboxytetramethylrhodamine. The FRET probe sequences were diluted from stock to the correct concentration (400 nM) in a 60 mM potassium cacodylate buffer (pH 7.4) and then annealed by heating to 85° C. for 10 min, followed by cooling to room temperature in the heating block. The compound was stored as a 10 mM stock solution in DMSO; final solutions (at 2×concentration) were prepared using 10 mM HCl in the initial 1:10 dilution, after which 60 mM potassium cacodylate buffer (pH 7.4) was used in all subsequent steps. The maximum HCl concentration in the reaction volume (at a ligand concentration of 20 μM) is thus 200 μM, well within the range of the buffer used. Relevant controls were also performed to check for interference with the assay. 96-Well plates (MJ Research, Waltham, Mass.) were prepared by aliquoting 50 μl of the annealed DNA into each well, followed by 50 μl of the compound solutions. Measurements were made on a DNA Engine Opticon (MJ Research) with excitation at 450-495 nm and detection at 515-545 nm. Fluorescence readings were taken at intervals of 0.5° C. in the range 30-100° C., with a constant temperature being maintained for 30 s prior to each reading to ensure a stable value. Final analysis of the data was carried out using a script written in the program Origin 7.0 (OriginLab Corp., Northampton, Mass.). The advanced curve-fitting function in Origin 7.0 was used for calculation of ΔTm values. All determinations were performed in triplicate or better. Esds in ΔTm are ±0.1° C.
# The ability of compounds 3a-h to stabilize a human telomeric quadruplex was assessed by a high-throughput FRET (Fluorescence Resonance Energy Transfer) melting technique. […] None of the furan tetrahydrofuran, pyranose or acyclic ether compounds has any effect on quadruplex or duplex stability.
# (§7) The T-loop sequence represents duplex DNA.
# A549 (lung) cells = assay: SRB growth inhibition assay, 96 hr exposure, A549; type: cell-based, human
# Description: as §1, §2, §3
# duplex DNA (T-loop) = assay: FRET melting assay, duplex DNA; type: binding; conditions: for change in melting temperature Tloop 1 uM: 1 uM ligand; for change in melting temperature Tloop 2 uM: 2 uM ligand
# Source text: as §4, §6, §7
# Panc1 (pancreatic) cells = assay: SRB growth inhibition assay, 96 hr exposure, Panc1; type: cell-based, human
# Description: as §1, §2, §3
# 786-O (renal) cells = assay: SRB growth inhibition assay, 96 hr exposure, 786-O; type: cell-based, human; conditions: SRB assay, 96 hr exposure
# Description: as §1, §2, §3
# [5] = test system: WI38 normal human fibroblast cells; assay: SRB growth inhibition assay, 96 hr exposure, WI38; type: cell-based
# Description: as §1
# as §2, with “nM). […]” for “nM).”
SMILES,IC50 (MCF-7 (breast) cells) [nM],IC50 (RCC4 (renal) cells) [nM],IC50 [1] [nM],change in melting temperature Hsp90B 1 uM [2],change in melting temperature Hsp90B 2 uM [2],change in melting temperature Hsp90A 1 uM [3],change in melting temperature Hsp90A 2 uM [3],change in melting temperature F21T 1 uM [4],change in melting temperature F21T 2 uM [4],IC50 (A549 (lung) cells; 96 hr exposure) [nM],change in melting temperature Tloop 1 uM (duplex DNA (T-loop)),change in melting temperature Tloop 2 uM (duplex DNA (T-loop)),IC50 (Panc1 (pancreatic) cells; 96 hr exposure) [nM],IC50 (786-O (renal) cells) [nM],IC50 [5] [nM],other results
CN1CCN(CCCN2C(=O)c3cc(NCC4CCCO4)c4c5c(cc(NCC6CCCO6)c(c35)C2=O)C(=O)N(CCCN2CCN(C)CC2)C4=O)CC1 (racemic) [SKM038],560 ± 34,3000 ± 170,95 ± 3,13,17,21,23,<2,15,160 ± 2,0,0,1500 ± 170,390 ± 20,2300 ± 80,
CN1CCN(CCCNc2cc3c4c(c(NCCCN5CCN(C)CC5)cc5c4c2C(=O)N(CCCN2CCOCC2)C5=O)C(=O)N(CCCN2CCOCC2)C3=O)CC1 [MM41],,,,29,33,33,36,27,32,,5,9,,,,"IC50 (MCF-7 (breast) cells; Homo sapiens, MCF7): 70 ± 7 nM; IC50 (RCC4 (renal) cells; Homo sapiens, RCC4): 560 ± 50 nM; IC50 ([1]; Homo sapiens, MIA PaCa-2): 10 ± 10 nM; IC50 (A549 (lung) cells; Homo sapiens, A549, 96 hr exposure): 19 ± 5 nM; IC50 (Panc1 (pancreatic) cells; Homo sapiens, PANC-1, 96 hr exposure): 3 ± 0.5 nM; IC50 (786-O (renal) cells; Homo sapiens, 786-0): 320 ± 10 nM; IC50 ([5]; Homo sapiens, WI-38): 230 ± 10 nM"
COCCCNc1cc2c3c(c(NCCCOC)cc4c3c1C(=O)N(CCCN1CCN(C)CC1)C4=O)C(=O)N(CCCN1CCN(C)CC1)C2=O [SKM022],17500 ± 980,7600 ± 10,7050 ± 830,22,26,22,24,<2,16,5750 ± 510,0,0,2500 ± 340,16100 ± 630,> 25000,
CN1CCN(CCCN2C(=O)c3cc(NCCCN4CCOCC4)c4c5c(cc(NCCCN6CCOCC6)c(c35)C2=O)C(=O)N(CCCN2CCN(C)CC2)C4=O)CC1 [SKM029],14 ± 1,610 ± 70,50 ± 2,30,34,34,36,29,34,7 ± 1,5,9,2 ± 1,440 ± 70,300 ± 23,
CN1CCN(CCN2C(=O)c3cc(NCCCN4CCOCC4)c4c5c(cc(NCCCN6CCOCC6)c(c35)C2=O)C(=O)N(CCN2CCN(C)CC2)C4=O)CC1 [SKM036],21 ± 1,300 ± 16,5 ± 1,28,32,33,36,26,31,20 ± 1,2,8,5 ± 1,160 ± 21,180 ± 2,
